Source: US6514942B1, “Methods and compositions for stimulating T-lymphocytes” (The Board of Regents, The University of Texas System, priority 1995, dated 2003)

Legend:
C84 reactive CTL = experiment: Recognition by C84 reactive CTL; format: cell-based, human
Description: The analogs with sequences C91=[…], (SEQ ID NO:4) and C92=[…] (SEQ ID NO:3) are also compositions of the present invention. In addition, substitutions at P4 (S→K) and P6 (F→V) affect residues that are expected to interact with TCR. […] Both C81 and C82 can form the core for antagonists of HER-2 reactive CTLs (to control and stop CTL reactions), and as such represent the first “universal” antagonists reported for stimulating CTLs.

[1] = biological target: T1, HLA-A2 on indicator T2 cells (Homo sapiens, UniProt P04439, D140Y/D185E/D98H/E176V/E277Q/G131W/G231S/I119V/I121R/I166T/I218V/L300P/L318F/N151K/N90K/P208A/P217A/Q86G/Q94H/R138H/R169H/T345S); experiment: Stabilization of HLA-A2 expression on indicator line T2; format: cell-based
T1 construct: cell surface expression of HLA-A2 is lower (30-40%) than in normal LBL lines transfected with HLA-A2; endogenous in cells; host or cells: T2 (transport deletion mutant) human lymphoblastoid cells, obtained from Dr. Peter Creswell
Description: Since HER-2 is a self-antigen, during thymic selection, a number of T-cells carrying receptors with high affinity for the HLA-peptide complex are silenced either by elimination ro tolerization. A pre-condition for induction of a high affinity TCR-(MHC+peptide) interactions, is a stable (MHC+peptide) complex. […] However, stabilization of HLA-Class I binding by exogenously added peptide is dependent on introduction of dominant anchors in positions P2 and P9 which are not recognized by TCR.
Peptide D113, […] (SEQ ID NO:17), is the natural nonapeptide […].

HLA-A2 binding [1]: binds HLA-A2
Sequence: ELVKEVSKV [Peptide C82, C85 analog with P4 (S→K) and P6 (F→V) substitutions]
recognition by C84 reactive CTL (C84 reactive CTL): no longer recognized by C84 reactive CTL
